1 compound from publication PMC12567141, “Design, Synthesis and Biological Evaluation of Pyrazolopyrimidine Derivatives as Aryl Hydrocarbon Receptor Antagonists for Colorectal Cancer Immunotherapy” (Pharmaceutics, 2025) can be followed below.

The nature of series [1]: Pharmacokinetic study in mouse. As to conditions: male, ICR, plasma. It is filed as in vivo, ICR mice. How it is done: To estimate the pharmacokinetic parameters in animals, the drug was administered via intravenous (I.V., 5 mg/kg) and oral (P.O., 10 mg/kg) routes in seven-week-old male ICR mice (Orient Bio Inc., Seongnam, Korea). Blood samples were collected at 0.083 (for I.V.), 0.5, 1, 2, 4, 8, and 24 h after drug administrations and then immediately centrifuged at 10,000× g for 3 min. The plasma concentrations of the drug were determined via LC-MS/MS. The plasma concentration–time profiles and pharmacokinetic parameters were estimated using the non-compartmental method with the nonlinear least squares regression program WinNonlin 5.3 (Pharsight, Mountain View, CA, USA).

In a further series the test system is MC38/Luc cells. The experiment in a line: Cytotoxic T lymphocyte (CTL) assay. The settings on record: splenocytes of treated tumour-bearing mice, effector:target 10:1, luciferase activity. It is filed as cell-based. How it is done:
Splenocytes were collected from tumour-bearing mice and stimulated with a cell activation cocktail (BioLegend) for 6 h. MC38/Luc cells as target cells were seeded in black, clear-bottomed 96-well plates (1 × 10^4 cells). After overnight incubation, splenocytes as effectors were added into wells containing target cells at an effector to target ratio of 10:1. LLC/Luc and CT26/Luc cells were used as negative target cells. Eleven hours later, luciferase activity was measured with an IVIS Lumina III instrument (PerkinElmer, Waltham, MA, USA).

The test system of a further series is MC38 tumor. The experiment in a line: In vivo therapy, MC38 syngeneic model. Set-up: species or system mice. How it is done:
In vivo experiments were conducted using 6-week-old male immunocompetent BALB/c and C57BL/6 with 18–20 g body weight (Orient Bio Inc., Seungnam, Republic of Korea). All animal experimental procedures were maintained and used in accordance with the Guidelines for the Care and Use of Laboratory Animals of the Institute of Laboratory Animal Center, Daegu-Gyeongbuk Medical Innovation Foundation (K-MEDI hub). The animal studies were conducted after approval by the institutional reviewer board on the Ethics of Animal Experiments of the Daegu-Gyeongbuk Medical Innovation Foundation (approval number: KMEDI-24041103-01).
Study 1: Antitumor activity of 7k alone in mice with either CT26 syngeneic model or MC38 syngeneic model. Mice were subcutaneously challenged with 5 × 10^5 either MC38 or CT26 cells. […]
The 7k was dissolved in solution including 5% DMSO, 55% DW, and 40% PEG. Tumor size was measured with a caliper at the indicated time points, and tumor volume (mm^3) was calculated using the following formula, tumor volume (mm^3) = d2 × D/2, where d and D are the shortest and longest diameters in mm, respectively.

Series [2] relates to AhR nuclear translocation in MC38 cells. The experiment in a line: Kynurenine-induced AhR nuclear translocation (Western blot). It is filed as cell-based. As to conditions: kynurenine-treated MC38 cells, 24 h. How it is done: Cells were harvested and washed twice in cold PBS. Cytoplasmic and nuclear protein were isolated by NE-PER^TM (Thermo Fisher Scientific, Waltham, MA, USA). The procedure was completed according to the kit instructions.
For the extraction of total protein, cells were treated with 7k for 24 h in a CO2 incubator at 37 °C and washed twice with phosphate-buffered saline (PBS). Cell pellets were lysed using radioimmunoprecipitation assay (RIPA) buffer (Thermo Fisher Scientific) containing a protease and phosphatase inhibitor cocktail kit (Thermo Fisher Scientific). The lysed cells were briefly vortexed at intervals and subsequently centrifuged at 13,000× g at 4 °C. The protein sample was quantified with the bicinchoninic acid (BCA) protein assay kit (Thermo Fisher Scientific).
Equal amounts of proteins were loaded onto 10% sodium dodecyl sulfate polyacrylamide gel electrophoresis and transferred onto PVDF membranes (Millipore, Billerica, MA, USA). The membrane was blocked with 5% skim milk in Tris-buffered saline (TBS) containing Tween-20 (TBS-T) for an hour and probed with the respective primary antibodies in 5% BSA overnight at 4 °C. Following incubation, the membrane was probed with horseradish peroxidase (HRP)-conjugated secondary antibodies for an hour at room temperature. […]

A further series has as its target AhR (Danio rerio, UniProt Q9YGV3). The experiment in a line: IC50 determination, Cyp1a dual luciferase reporter assay in transfected COS-7 cells. It is filed as cell-based. The settings on record: AhR2/ARNT-1c/Cyp1a-luciferase, TCDD 10 nM. How it is done:
All experiments were conducted as described previously unless stated otherwise. COS-7 cells were seeded onto 24-well plate until approximately 65% confluency. The cells were transfected with ARNT-1c expression plasmid (50 ng), AhR2 expression plasmid (5 ng), Cyp1a-firefly luciferase reporter plasmid (20 ng) and pRL-TK Renilla luciferase plasmid (2 ng) using Lipofectamine 3000 (Thermo Fisher Scientific) according to the manufacturer’s protocol. The pEGFP-C1 plasmid (Clontech, Tempe, AZ, USA) was used to assess the transfection efficiency. At 5 h post transfection, serially diluted test compounds at indicated concentration were added to the cells. Simultaneously, TCDD (10 nM) or indicated compounds with the highest concentration were added in the control wells. At 1 h post compound treatment, TCDD (10 nM) was added to all wells except the control wells. At 18 h post TCDD treatment, the medium was removed, and the cells washed with Dulbecco’s phosphate buffered saline (DPBS) and harvested using 1x Passive Lysis Buffer (Promega, Madison, WI, USA). The dual luciferase assay was carried out using a Dual-Luciferase Reporter Assay System (Promega, Madison, WI, USA) and an Orion L Microplate Luminometer (Titertek Berthold, Pforzheim, BW, Germany) as per manufacturer’s protocol. The relative light unit (RLU) values were normalized and expressed as toxic induced ratio (TIR). IC50 was determined using Prism 9.0 (GraphPad Software).

The test system of another series is MC38 and CT26 cells. The experiment in a line: Apoptosis analysis (Annexin V / propidium iodide). It is filed as cell-based. The settings on record: 24 h treatment. How it is done: Cells were washed with PBS containing 1% horse serum and stained with the FITC-Annexin V Apoptosis Detection Kit I (BD Biosciences) at room temperature for 30 min in the dark. DNA content, cell-cycle profiles, and forward scatter profiles were determined using the Becton Dickinson LSRFortessa^TM and analyzed with FlowJo software v11.

Structures are written as SMILES.

AhR, sequence (Q9YGV3 1-1027): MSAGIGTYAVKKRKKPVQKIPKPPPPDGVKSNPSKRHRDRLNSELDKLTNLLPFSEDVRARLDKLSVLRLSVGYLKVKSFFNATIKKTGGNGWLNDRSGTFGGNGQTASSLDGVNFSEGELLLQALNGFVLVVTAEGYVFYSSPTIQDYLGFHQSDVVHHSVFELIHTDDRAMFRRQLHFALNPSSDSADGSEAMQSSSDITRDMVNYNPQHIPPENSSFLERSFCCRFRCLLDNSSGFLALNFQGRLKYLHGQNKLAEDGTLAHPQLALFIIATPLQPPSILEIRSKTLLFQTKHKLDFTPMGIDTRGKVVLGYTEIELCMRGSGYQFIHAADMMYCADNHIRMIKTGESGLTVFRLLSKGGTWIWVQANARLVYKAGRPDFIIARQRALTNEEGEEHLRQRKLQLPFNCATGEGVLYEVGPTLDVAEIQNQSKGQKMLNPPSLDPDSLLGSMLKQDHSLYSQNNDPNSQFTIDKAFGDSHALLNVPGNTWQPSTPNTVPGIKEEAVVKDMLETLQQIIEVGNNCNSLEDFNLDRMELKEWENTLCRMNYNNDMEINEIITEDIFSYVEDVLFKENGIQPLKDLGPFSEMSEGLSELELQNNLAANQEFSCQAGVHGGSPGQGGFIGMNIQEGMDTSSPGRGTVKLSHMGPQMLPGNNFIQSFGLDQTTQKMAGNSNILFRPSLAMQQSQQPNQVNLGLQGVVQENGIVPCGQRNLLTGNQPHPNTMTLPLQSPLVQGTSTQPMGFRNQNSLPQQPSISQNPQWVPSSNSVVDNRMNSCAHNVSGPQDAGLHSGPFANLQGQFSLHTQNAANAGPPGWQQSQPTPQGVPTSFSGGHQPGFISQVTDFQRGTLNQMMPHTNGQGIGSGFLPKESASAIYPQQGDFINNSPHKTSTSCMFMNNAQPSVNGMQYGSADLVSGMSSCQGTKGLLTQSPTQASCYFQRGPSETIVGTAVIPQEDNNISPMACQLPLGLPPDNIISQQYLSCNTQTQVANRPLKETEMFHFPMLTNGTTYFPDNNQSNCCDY
AhR, sequence (Q64FF9 1-503 partner): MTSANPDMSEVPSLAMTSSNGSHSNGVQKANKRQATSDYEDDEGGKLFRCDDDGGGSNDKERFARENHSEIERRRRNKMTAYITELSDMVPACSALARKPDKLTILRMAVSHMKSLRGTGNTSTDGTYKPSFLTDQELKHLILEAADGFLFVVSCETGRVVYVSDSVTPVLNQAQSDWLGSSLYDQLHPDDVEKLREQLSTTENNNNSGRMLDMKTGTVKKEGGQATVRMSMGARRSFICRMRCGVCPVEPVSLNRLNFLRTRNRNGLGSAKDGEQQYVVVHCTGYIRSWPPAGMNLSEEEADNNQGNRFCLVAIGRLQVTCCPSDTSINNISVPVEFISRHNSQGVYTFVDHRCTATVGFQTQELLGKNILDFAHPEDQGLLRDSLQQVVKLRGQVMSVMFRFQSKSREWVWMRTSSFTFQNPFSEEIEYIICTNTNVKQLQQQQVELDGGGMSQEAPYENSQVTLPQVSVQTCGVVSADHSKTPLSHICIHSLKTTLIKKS

Take `CC(C)n1cc2nc(-c3cc(F)cc(F)c3)nc(NCCc3c[nH]c4ccccc34)c2n1` [Compound 7k, N-(2-(1H-indol-3-yl)ethyl)-5-(3,5-difluorophenyl)-2-isopropyl-2H-pyrazolo [4,3-d]pyrimidin-7-amine]: in series [1] (IV, 5 mg/kg), the AUC(0-inf) was 5860 ng·h/mL, the AUC(0-t) was found to be 5750 ± 740 ng·h/mL, the clearance is 14.3 mL/min/kg and the half-life was 4.54 h. In series [1] (IV, 5 mg/kg, read-out: Vss (converted)), the Vd was 3.91 L/kg. In series [1] (PO, 10 mg/kg), the AUC(0-inf) is 8230 ng·h/mL, the AUC(0-t) came out at 8160 ± 3670 ng·h/mL, the Cmax was 2380 ng/mL and the Tmax turned out to be 0.67 ± 0.29 h. The half-life in series [1] (PO, 10 mg/kg) was 3.77 h. For the same compound, in series [1] (PO, 10 mg/kg, read-out: Ft (%) bioavailability (converted)), the bioavailability is 71%. In the series on MC38/Luc cells, the “CTL-mediated killing activity against MC38-luc cells” value is recorded as “minimal killing activity”. Moreover, the “tumor growth inhibition (TGI)” value with MC38 tumor (MC38 model, combination study, 7k oral daily 20 days, anti-PD1 i.p. every three days four times) came out at 45%. The “tumor growth inhibition (TGI)” value in the series with MC38 tumor (MC38 model, comparison of 7k and 3′,4′-dimethoxyflavone, 10 mg/kg oral once a day, 18 days) was determined as 51%. Further, the tumor weight result in the series with MC38 tumor (MC38 tumor bearing mice, vs vehicle-treated mice (Figure S5)) is “significantly lower”. Further, the “tumor growth inhibition (TGI)” value in the series on MC38 tumor (MC38 tumor-bearing mice, single agent, 10 mg/kg oral once a day for 14 days) was determined as 49%. In addition, in series [2], the “AhR expression in the nucleus” value is “decreased AhR expression in the nucleus”. Moreover, at AhR, the IC50 is 13.7 nM. Also, the apoptosis entry with MC38 and CT26 cells is reported as “increase in apoptosis”.
